Assays:
[1] = tested on: carrageenan-induced rat paw edema; assay: Carrageenan-induced rat paw edema model; type: in vivo; settings: for Rat Paw Thickness: mean ± SD; for inhibition in vivo at 2.5 mg/kg / inhibition in vivo at 5 mg/kg / inhibition in vivo at 10 mg/kg: Rattus norvegicus
Method: The Carrageenan-induced rat paw edema model was used to assess the anti-inflammatory potential of novel compounds 8–14. Induction of inflammation was performed in all animals by intraplantar injection of […] 0.5% carrageenan saline into the left hind paw.
Animals (n = 200) were randomly divided into the following groups: control groups, that received either 1% DMSO or naproxen, and experimental groups, that received the novel compounds 8–14.
Control groups included DMSO and naproxen groups. Rats belonging to the DMSO group received 1% DMSO in the same volume as the compounds 8–14, 60 min before carrageenan injection. Moreover, naproxen groups included rats that were subjected to naproxen treatment in three doses: 2.5 mg/kg, 5 mg/kg, and 10 mg/kg. Naproxen was applied in the same manner as 1% DMSO.
Experimental groups included rats that were treated with compounds 8–14 and they were divided into three subgroups depending on the applied dose: 2.5 mg/kg, 5 mg/kg, and 10 mg/kg. The examined compounds were dissolved in 1% DMSO prior to treatment and applied to rats 60 min before inducing inflammation, i.e., before carrageenan injection. Doses of naproxen and investigated compounds were defined based on our previously published research.
In order to quantify the anti-inflammatory effects of the tested compounds, left paw thickness was measured at specific time points: prior to inflammation induction (moment 0) and 1, 2, 3, and 4 h (moments 1, 2, 3, and 4) following carrageenan injection. Tissue thickness was measured in the middle of the rat paw using a Digital Vernier caliper (Aerospace, China). The percentage of inhibition of paw edema after treatment with different agents was calculated according to the formula, Equation (2):% Inhibition = 100 × [1 − (Yt/Yc)](2) where Yt = average increase in paw thickness in the treated group of rats between two measurement moments, and Yc = average increase in paw thickness in the untreated group of rats between two measurement moments.

HCT 116 = assay: MTT cytotoxicity assay, HCT 116; type: cell-based, human; settings: for IC50: Homo sapiens, mean ± SD
Method: Three cancer cell lines (MDA-MB-231, HCT116 and HeLa; i.e., human breast cancer cells, human colorectal cancer cells, and human cervical cancer cells, respectively), and one non-malignant fibroblast MRC-5 cell line (control) were used in this study. The American Type Cell Collection (ATCC, Manassas, VA, USA) provided all examined cell lines. The cells were grown in a complete medium made up of high-glucose DMEM media supplemented with 10% fetal bovine serum and […] L-glutamine (both from Sigma-Aldrich, USA). The cells were cultured in 25 cc flasks (Thermo Fischer Scientific, Waltham, MA, USA) at 37 °C with 100% humidity in a 5% CO2 atmosphere.
The MTT test was used to assess the cytotoxicity of compounds 1–14 [44]. The cytotoxicity of naproxen was also investigated due to its clinical use and structural similarity. Throughout the exponential development period, cells were taken from culture flasks and counted, and 5 × 10^3 cells/well were planted into 96-well culture plates. Following that, the cell lines were treated with varying doses of the investigated chemicals (1–14), naproxen ([…]), and fresh complete media as a control. All evaluated cells were incubated for 24, 48, and 72 h at 37 °C in an environment containing 5% CO2 and 100% humidity. Following incubation, each well’s culture media was taken out, each well received an addition of MTT solution at a final concentration of 0.5 mg/mL, and the cells were left to incubate for an additional four hours. The MTT solution was then withdrawn carefully, and the formazan crystals were dissolved in DMSO. After shaking the plates for 10 min, absorbance at 595 nm was measured using a multiplate reader (Zenyth 3100, Anthos Labtec Instruments, Salzburg, Austria). All concentrations of the tested compounds were performed in three separate wells of the microtiter plates and in three separate experiments. The results were reported as a ratio to the control value, untreated cells. IC50 values were also determined using Microsoft Office Excel 2021. The percentage of viable cells was estimated by dividing the readout absorbance value in the wells containing treated cells by the average absorbance value measured in the wells containing untreated cells, and multiplying the result by 100 [44]. % of the viable cells = ((absorbance of treated cell-absorbance of blank)/(absorbance of untreated cell-absorbance of blank)) × 100(3)

HeLa cells = assay: Cell cycle analysis (PI staining, flow cytometry); type: cell-based, human; settings: 24 h, IC50 concentration, p < 0.05
Method: The next step in this study was to evaluate whether the rate of division of HeLa tumor cells slows down under the influence of tested compounds. To examine the potential effect of compounds 3 and 8 on the cell cycle of HeLa cells, the cell line was incubated and treated with previously calculated IC50 values. The control population of untreated cells was also harvested and washed in the above-mentioned manner. Furthermore, HeLa cells were harvested, washed with PBS, and fixed with 70% ethanol at +4 °C. Cells were agglomerated and finally resuspended in 1 mL PBS containing RNAse A (500 μg/mL). After 30 min of incubation, cells were stained with 5 μL PI (10 mg/mL PBS). After 15 min of incubation in the dark, the samples were examined using a Beckman Coulter FC500 flow cytometer.

[2] = 2.5 mg/kg, 1 h after carrageenan
[3] = 2.5 mg/kg, 2 h after carrageenan
[4] = 2.5 mg/kg, 3 h after carrageenan
[5] = 2.5 mg/kg, 4 h after carrageenan
[6] = 5.0 mg/kg, 1 h after carrageenan
[7] = 5.0 mg/kg, 2 h after carrageenan
[8] = 5.0 mg/kg, 3 h after carrageenan
[9] = 5.0 mg/kg, 4 h after carrageenan
[10] = 10.0 mg/kg, 1 h after carrageenan
[11] = 10.0 mg/kg, 2 h after carrageenan
[12] = 10.0 mg/kg, 3 h after carrageenan
[13] = 10.0 mg/kg, 4 h after carrageenan

SMILES | Rat Paw Thickness [1, 2] [mm] | Rat Paw Thickness [1, 3] [mm] | Rat Paw Thickness [1, 4] [mm] | Rat Paw Thickness [1, 5] [mm] | Rat Paw Thickness [1, 6] [mm] | Rat Paw Thickness [1, 7] [mm] | Rat Paw Thickness [1, 8] [mm] | Rat Paw Thickness [1, 9] [mm] | Rat Paw Thickness [1, 10] [mm] | Rat Paw Thickness [1, 11] [mm] | Rat Paw Thickness [1, 12] [mm] | Rat Paw Thickness [1, 13] [mm] | inhibition in vivo at 2.5 mg/kg ([1]; 2.5 mg/kg, 1 h) [%] | inhibition in vivo at 2.5 mg/kg ([1]; 2.5 mg/kg, 2 h) [%] | inhibition in vivo at 2.5 mg/kg ([1]; 2.5 mg/kg, 3 h) [%] | inhibition in vivo at 2.5 mg/kg ([1]; 2.5 mg/kg, 4 h) [%] | inhibition in vivo at 5 mg/kg ([1]; 5.0 mg/kg, 1 h) [%] | inhibition in vivo at 5 mg/kg ([1]; 5.0 mg/kg, 2 h) [%] | inhibition in vivo at 5 mg/kg ([1]; 5.0 mg/kg, 3 h) [%] | inhibition in vivo at 5 mg/kg ([1]; 5.0 mg/kg, 4 h) [%] | other results
COc1ccc2cc([C@H](C)C(=O)NC(=S)Nc3ccccc3)ccc2c1 [Compound 8, (S)-2-(6-methoxynaphthalen-2-yl)-N-(phenylcarbamothioyl)propanamide] | 5.67 ± 0.15 | 5.43 ± 0.15 | 5.07 ± 0.21 | 4.53 ± 0.50 | 6.0 ± 0.36 | 5.8 ± 0.44 | 5.40 ± 0.44 | 4.96 ± 0.35 | 6.0 ± 0.40 | 5.60 ± 0.44 | 5.27 ± 0.38 | 5.07 ± 0.21 | 19.7 | 21.2 | 26.1 | 44.4 | 23.8 | 24.2 | 31.5 | 44.9 | inhibition in vivo at 10 mg/kg ([1]; 10.0 mg/kg, 1 h): 29.3%; inhibition in vivo at 10 mg/kg ([1]; 10.0 mg/kg, 2 h): 39.4%; inhibition in vivo at 10 mg/kg ([1]; 10.0 mg/kg, 3 h): 45.9%; inhibition in vivo at 10 mg/kg ([1]; 10.0 mg/kg, 4 h): 46.7%; IC50 (HCT 116; HCT-116, 24 h): > 200 µM; IC50 (HCT 116; HCT-116, 48 h): > 200 µM; IC50 (HCT 116; HCT-116, 72 h): 101 ± 15.5 µM; Effect on cell cycle of HeLa cells (in words) (HeLa cells): induced G0/G1 phase arrest
COC(=O)[C@H](Cc1c[nH]c2ccccc12)NC(=S)NC(=O)[C@@H](C)c1ccc2cc(OC)ccc2c1 [Compound 14, Methyl (((S)-2-(6-methoxynaphthalen-2-yl)propanoyl)carbamothioyl)tryptophanate] | 6.53 ± 0.42 | 6.23 ± 0.25 | 5.90 ± 0.26 | 5.33 ± 0.49 | 6.77 ± 0.38 | 6.53 ± 0.42 | 6.17 ± 0.25 | 5.80 ± 0.10 | 7.03 ± 0.21 | 6.47 ± 0.06 | 6.03 ± 0.25 | 5.67 ± 0.21 | 12.9 | 16.7 | 18.9 | 37.8 | 25.2 | 27.3 | 33.3 | 42.2 | inhibition in vivo at 10 mg/kg ([1]; 10.0 mg/kg, 1 h): 11.6%; inhibition in vivo at 10 mg/kg ([1]; 10.0 mg/kg, 2 h): 27.3%; inhibition in vivo at 10 mg/kg ([1]; 10.0 mg/kg, 3 h): 36.9%; inhibition in vivo at 10 mg/kg ([1]; 10.0 mg/kg, 4 h): 46.7%; Cytotoxic effect against the HCT 116 cell line (in words) (HCT 116): moderate cytotoxic effects; IC50 (HCT 116; HCT-116, 24 h): 150 ± 7.6 µM; IC50 (HCT 116; HCT-116, 48 h): 108 ± 12.7 µM; IC50 (HCT 116; HCT-116, 72 h): 47.1 ± 5.4 µM

From article PMC10820527, “Synthesis, Characterization, and Investigation of Anti-Inflammatory and Cytotoxic Activities of Novel Thiourea Derivatives of Naproxen” (Pharmaceutics, 2023)
